Results published in patent publication US20040258621A1, “Method of treating snoring and other obstructive breathing disorders” (priority 2002, published 2004).
Structures can show the parent of a compound that is named as a salt. Where two headings read alike, the source gives them in different places.

Assays:
[1] = especially at room temperature; cited from earlier work
[2] = system: snoring in a nocturnal breathing obstructed person with GERD; test: Case study of a snoring patient with GERD; assay type: in vivo, human; details: for beneficial effect on snoring: throughout the subsequent year
Description: A person, 5 feet 3 inches tall and moderately overweight reported a 15-20 year history of progressively increasing snoring. The intensity of their snoring was well documented by their spouse, who experienced disturbed sleep as a result of their spouse's snoring, occasionally requiring them to waken the patient in order for them to obtain relief. The patient gave no history of naso-pharyngeal structural abnormalities or surgery (other than third molar extraction) and had experienced no breathing disorder.
The patient complained to their physician of a chronic scratchiness in their throat, thought to be a result of gastroesophageal reflux disease (GERD). To treat the GERD symptoms, the patient was placed on Prevacid (Lansoprazole) 15 mg once daily.

[3] = system: outpatients with significant snoring; test: Open label study on 8 outpatients with significant snoring; assay type: in vivo, human; details: 30 mg, 35 to 90 days (mean 61 days)
Method: An open label study was performed on 8 outpatients with significant snoring. The patients were treated with Prevacid 30 mg. for 30-90 days. The entry criteria were snoring with or without sleep apnea, documented by history, physical exam, and independent sleep lab studies. […] At baseline patients had all been placed on conservative nasal regimen with no improvement in their symptoms. […] At the end of treatment changes in global and spousal ratings of snoring were made along with investigator observations.
The demographics of the study group were eight males no females; a mean age of 50.6 years with a range of 32-70; a mean weight of 206 lbs with a range of 160-260; and there were 6 white, 1 black, and 1 Asian in the group. At baseline the investigator made the diagnosis of GERD in 4 patients. Spousal ratings of snoring were 3 moderate and 5 severe; 4 had moderate or severe sleep apnea; and all 8 had daytime sleepiness.
The duration of treatment ranged from 35 to 90 days with a mean of 61 days. At conclusion of the study, 7 of 8 patients had moderate or marked improvement in snoring. […] 8 of 8 patients had marked improvement in their sleep with less waking and less daytime fatigue.

[4] = cited from earlier work
[5] = cited from earlier work; for stability in acidic media: acid media
[6] = system: heartburn symptoms and lesions caused by heartburn; details: according to the manufacturer AstraZeneca; cited from earlier work
[7] = +37° C., relative humidity 80%, 6 months; cited from earlier work

SMILES: COc1ccc2[nH]c([S+]([O-])Cc3ncc(C)c(OC)c3C)nc2c1 (stereo not drawn) [Omeprazole form A, omeprazole]
- thermodynamic stability versus omeprazole form B [1]: thermodynamically more stable

SMILES: NC(N)=Nc1nc(CSCCC(N)=NS(N)(=O)=O)cs1 [Pepcid AC (Famotidine), famotidine]
- beneficial effect on snoring [2]: maintained

SMILES: Cc1c(OCC(F)(F)F)ccnc1C[S+]([O-])c1nc2ccccc2[nH]1 (stereo not drawn) [Prevacid (Lansoprazole), 2-[[[3-methyl-4-(2,2,2-trifluoroethoxy)-2-pyridyl]methyl]sulfinyl]benzimidazole]
- patients with marked improvement in their sleep with less waking and less daytime fatigue [3]: 8 of 8
- patients with moderate or marked improvement in snoring [3]: 7 of 8
- intensity of the patient's snoring (spouse's observation) ([2]; 15 mg once daily): gradual decline
- throat scratchiness ([2]; 15 mg once daily, after beginning treatment): declined promptly
- benefit on snoring sustained for the duration of dosing ([2]; 15 mg once daily, approximately 12 months): moderate to marked benefit
- snoring after dosing was interrupted ([2]; dosing interrupted for several weeks): resumption of noticeable snoring intensity

SMILES: COCCCOc1ccnc(C[S+]([O-])c2nc3ccccc3[nH]2)c1C (stereo not drawn) [Rabeprazole sodium, 2-[[[4-(3-methoxypropoxy)-3-methyl-2-pyridinyl]-methyl]sulfinyl]-1H-benzimidazole sodium salt]
- solubility ([4]; chloroform): freely soluble
- solubility ([4]; ethanol): freely soluble
- solubility ([4]; ether): insoluble
- solubility ([4]; ethyl acetate): freely soluble
- solubility ([4]; methanol): very soluble
- solubility ([4]; n-hexane): insoluble
- solubility ([4]; water): very soluble
- stability in acidic media [5]: rapidly degraded
- stability under alkaline conditions [5]: more stable

SMILES: CN/C(=N/CCSCc1nc[nH]c1C)NC#N [Tagamet (Cimetidine), cimetidine]
- beneficial effect on snoring [2]: maintained

SMILES: COc1ccc2c(c1)nc([S@@+]([O-])Cc1ncc(C)c(OC)c1C)[n]2[Mg][n]1c([S@@+]([O-])Cc2ncc(C)c(OC)c2C)nc2cc(OC)ccc21.O.O.O [esomeprazole magnesium, bis(5-methoxy-2-[(S)-[(4-methoxy-3,5-dimethyl-2-pyridinyl)methyl]sulfinyl]-1H-benzimidazole-1-yl) magnesium trihydrate]
- rates of healing of certain lesions caused by heartburn versus PRILOSEC [6]: higher rates of healing
- reduction of heartburn symptoms versus PRILOSEC [6]: faster
- solubility ([4]; water): slightly soluble
- stability in acidic media [5]: rapidly degrades
- stability under alkaline conditions [5]: acceptable stability

SMILES: COc1ccc2[nH]c([S+]([O-])Cc3ncc(C)c(OC)c3C)nc2c1 (stereo not drawn) [omeprazole, 5-methoxy-2-[[(4-methoxy-3,5-dimethyl-2-pyridinyl)methyl]sulfinyl]-1H-benzimidazole]
- substance converted to degradation products [7]: about 6%
